Experimental data taken from ChEMBL document CHEMBL1944625, “Design and synthesis of 3,5-diarylpiperidin-2,6-diones as anticonvulsant agents” (Bioorg Med Chem Lett, 2012).

Columns and labels:
Mus musculus [1] = assay: Neurotoxicity in Swiss albino mouse assessed as impair in motor coordination at 300 mg/kg, ip after 4 hrs by rotarod test; format: toxicity, organism-based; design: dose 300 mg/kg, route intraperitoneal; conditions: in vivo
Mus musculus [2] = assay: Neurotoxicity in Swiss albino mouse assessed as impair in motor coordination at 300 mg/kg, ip after 0.5 hrs by rotarod test; format: toxicity, organism-based; design: dose 300 mg/kg, route intraperitoneal; conditions: in vivo
Mus musculus [3] = assay: Anticonvulsant activity in ip dosed Swiss albino mouse assessed as protection against maximal electroshock-induced seizures after 2 hrs; format: functional
Mus musculus [4] = assay: Anticonvulsant activity in Swiss albino mouse assessed as protection against maximal electroshock-induced seizures measuring inhibition of extension phase at 25 mg/kg, ip after 2 hrs; format: functional; conditions: route intraperitoneal
[5] = Neurotoxicity in ip dosed Swiss albino mouse assessed as impair in motor coordination from 0.5 to 4 hrs post administration by rotarod test; format: toxicity, organism-based; conditions: in vivo
Mus musculus [6] = species: Mus musculus; assay: Protection index, ratio of TD50 for Swiss albino mouse by rotarod test to ED50 for Swiss albino mouse by maximal electroshock test; format: functional
Mus musculus [7] = assay: Neurotoxicity in Swiss albino mouse assessed as impair in motor coordination at 100 mg/kg, ip after 0.5 hrs by rotarod test; format: toxicity, organism-based; design: dose 100 mg/kg, route intraperitoneal; conditions: in vivo

Row | SMILES | Activity (Mus musculus [1]) | Activity (Mus musculus [2]) | ED50 (Mus musculus [3]) | inhibition in vivo at 25 mg/kg (Mus musculus [4]) | TD50 [5] | Ratio TD50/ED50 (Mus musculus [6]) | Activity (Mus musculus [7])
1 | O=C1C(c2ccccc2Cl)CC(c2ccccc2Cl)C(=O)N1c1ccccc1 (configuration not stated) | Non-toxic | Non-toxic | 61.4 mg/kg | 40.6% | 198 mg/kg | 3.2 | –
2 | Cc1ccc(N2C(=O)C(c3ccccc3Cl)CC(c3ccccc3Cl)C2=O)cc1 (configuration not stated) | Non-toxic | Toxic | 41.2 mg/kg | 58.2% | 86.5 mg/kg | 2.1 | –
3 | NN1C(=O)C(c2ccccc2Cl)CC(c2ccccc2Cl)C1=O (configuration not stated) | Toxic | Toxic | 11.2 mg/kg | 73.3% | 117 mg/kg | 10.6 | –
4 | Cc1ccc(N2C(=O)C(c3ccccc3)CC(c3ccccc3)C2=O)cc1 (configuration not stated) | Toxic | – | 82 mg/kg | 43.3% | 190 mg/kg | 2.3 | Toxic
5 | O=C1C(c2ccccc2)CC(c2ccccc2)C(=O)N1Cc1ccccc1 (configuration not stated) | Non-toxic | Non-toxic | 14 mg/kg | 64.5% | 218 mg/kg | 15.6 | –
6 | CN1C(=O)C(c2ccccc2Cl)CC(c2ccccc2Cl)C1=O (configuration not stated) | Toxic | – | 23.7 mg/kg | 61.7% | 220 mg/kg | 9.2 | Toxic
7 | O=C1NC(=O)C(c2ccccc2Cl)CC1c1ccccc1Cl (configuration not stated) | Non-toxic | Non-toxic | 25.5 mg/kg | 58.3% | 175 mg/kg | 7 | –
8 | Cc1ccccc1N1C(=O)C(c2ccccc2)CC(c2ccccc2)C1=O (configuration not stated) | Non-toxic | Toxic | 21.5 mg/kg | 66.1% | 104 mg/kg | 4.9 | –
9 | O=C1N=C(O)NC1(c1ccccc1)c1ccccc1 [PHENYTOIN SODIUM] | – | – | – | 80.7% | – | – | –
10 | CN1C(=O)C(c2ccccc2)CC(c2ccccc2)C1=O (configuration not stated) | Toxic | – | 14.8 mg/kg | 69.1% | 323 mg/kg | 21.8 | Toxic
11 | NN1C(=O)C(c2ccccc2)CC(c2ccccc2)C1=O (configuration not stated) | Non-toxic | Non-toxic | 10 mg/kg | 76% | 123 mg/kg | 12.3 | –
12 | O=C1C(c2ccccc2Cl)CC(c2ccccc2Cl)C(=O)N1Cc1ccccc1 (configuration not stated) | Non-toxic | Non-toxic | 38.3 mg/kg | 58.2% | 106 mg/kg | 2.7 | –
13 | NC(=O)N1c2ccccc2C=Cc2ccccc21 [CARBAMAZEPINE] | – | – | 11.8 mg/kg | – | – | 6.4 | –
14 | O=C1C(c2ccccc2Cl)CC(c2ccccc2Cl)C(=O)N1c1cccc(Cl)c1 (configuration not stated) | Non-toxic | Non-toxic | 60.2 mg/kg | 43.7% | 108 mg/kg | 1.8 | –
15 | O=C1NC(=O)C(c2ccccc2)CC1c1ccccc1 (configuration not stated) | Non-toxic | Non-toxic | 11 mg/kg | 70.2% | 193 mg/kg | 17.5 | –
16 | O=C1C(c2ccccc2)CC(c2ccccc2)C(=O)N1c1ccccc1 (configuration not stated) | Non-toxic | Toxic | 43.7 mg/kg | 38.3% | 165 mg/kg | 3.7 | –
17 | O=C1C(c2ccccc2)CC(c2ccccc2)C(=O)N1c1cccc(Cl)c1 (configuration not stated) | Non-toxic | Toxic | > 100 mg/kg | 32.2% | – | – | –
18 | Cc1ccccc1N1C(=O)C(c2ccccc2Cl)CC(c2ccccc2Cl)C1=O (configuration not stated) | Non-toxic | Non-toxic | 27.4 mg/kg | 60.6% | 227 mg/kg | 8.3 | –
